# Assay results reported in patent US20090299044A1 (priority 2006, published 2009).
# Bridge positions count the residues as written; N and C are the ends. Square brackets hold non-standard residues; d marks the D form. Peptide text beside a SMILES is read from it. 1Nal = N[C@@H](Cc1cccc2ccccc12)C(=O)O
# Columns and labels:
# [1] = molecular target: T1, human Kv1.3 (CHO) (Homo sapiens, UniProt P22001); experiment: cell-based
# T1 construct: expressed in transfected cells; host or cells: CHO
# [2] = molecular target: T2, human Kv1.1 (HEK293) (Homo sapiens, UniProt Q09470); experiment: cell-based
# T2 construct: expressed in transfected cells; host or cells: HEK293
# T2 sequence (Q09470 whole entry): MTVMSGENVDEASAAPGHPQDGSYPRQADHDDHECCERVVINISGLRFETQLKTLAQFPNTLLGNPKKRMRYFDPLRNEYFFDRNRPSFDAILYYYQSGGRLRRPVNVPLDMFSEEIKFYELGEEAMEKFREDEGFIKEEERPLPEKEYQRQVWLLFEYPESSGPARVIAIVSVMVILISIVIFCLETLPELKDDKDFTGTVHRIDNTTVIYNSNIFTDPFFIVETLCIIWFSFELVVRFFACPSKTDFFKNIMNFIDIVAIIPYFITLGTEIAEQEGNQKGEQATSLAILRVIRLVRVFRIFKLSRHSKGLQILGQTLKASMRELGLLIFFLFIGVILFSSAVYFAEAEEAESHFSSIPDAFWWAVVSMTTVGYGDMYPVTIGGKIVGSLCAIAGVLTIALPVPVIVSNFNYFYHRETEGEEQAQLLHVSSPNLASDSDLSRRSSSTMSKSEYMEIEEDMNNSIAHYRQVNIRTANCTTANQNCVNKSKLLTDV
# T1 sequence (P22001 whole entry): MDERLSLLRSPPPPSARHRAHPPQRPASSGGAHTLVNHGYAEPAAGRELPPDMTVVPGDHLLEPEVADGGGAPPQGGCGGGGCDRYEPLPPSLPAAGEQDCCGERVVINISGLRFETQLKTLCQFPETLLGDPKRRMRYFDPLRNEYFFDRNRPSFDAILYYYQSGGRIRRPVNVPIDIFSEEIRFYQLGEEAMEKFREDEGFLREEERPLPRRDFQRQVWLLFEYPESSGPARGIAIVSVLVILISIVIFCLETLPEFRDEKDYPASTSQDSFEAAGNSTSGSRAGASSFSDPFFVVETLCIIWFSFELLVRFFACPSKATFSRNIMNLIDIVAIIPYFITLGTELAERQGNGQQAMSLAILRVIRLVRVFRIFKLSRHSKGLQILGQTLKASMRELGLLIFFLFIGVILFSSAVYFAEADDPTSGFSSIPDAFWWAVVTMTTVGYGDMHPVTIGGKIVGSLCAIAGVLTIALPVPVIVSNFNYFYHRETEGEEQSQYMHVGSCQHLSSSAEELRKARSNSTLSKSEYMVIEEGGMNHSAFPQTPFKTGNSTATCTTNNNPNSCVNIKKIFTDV
smiles,measurement,setting,value
"CC[C@H](C)[C@@H]1NC(=O)[C@H](CCCCN)NC(=O)[C@@H](NC(=O)[C@H](CCCCN)NC(=O)[C@@H](NC(=O)[C@H](CC(N)=O)NC(=O)[C@@H](NC(=O)[C@@H](NC(=O)[C@@H](NC(=O)CN)C(C)C)[C@@H](C)CC)[C@@H](C)CC)C(C)C)CSSC[C@@H]2NC(=O)[C@H](CCCCN)NC(=O)CNC(=O)[C@H](Cc3ccccc3)NC(=O)[C@H](CCCNC(=N)N)NC(=O)[C@H](CCSC)NC(=O)CNC(=O)[C@H](C)NC(=O)[C@H](CCCCN)NC(=O)[C@H](CCCCN)NC(=O)[C@@H]3CSSC[C@@H](C(=O)N[C@H](C(=O)N4CCC[C@H]4C(=O)N[C@@H](CCCCN)C(=O)O)[C@@H](C)O)NC(=O)[C@H](Cc4c[nH]cn4)NC(=O)[C@H](CSSC[C@H](NC(=O)[C@H](CCC(N)=O)NC(=O)[C@H](CCCNC(=N)N)NC(=O)[C@H](CO)NC1=O)C(=O)N[C@@H](CC(C)C)C(=O)N[C@@H](CCC(=O)O)C(=O)N[C@@H](C)C(=O)N3)NC(=O)[C@H](CCCCN)NC(=O)CNC(=O)[C@H](CC(N)=O)NC(=O)[C@H](CCSC)NC2=O [P17A] (H-GVIINVKCKISRQCLEACKKAGMRFGKCMNGKCHCTPK-OH; disulfide 8-28, 14-33, 18-35)",IC50,[1],0.0339 nM
same,IC50,[2],0.00908 nM
"CC[C@H](C)[C@@H]1NC(=O)[C@H](CCCCN)NC(=O)[C@@H](NC(=O)[C@H](CCCCN)NC(=O)[C@@H](NC(=O)[C@H](CC(N)=O)NC(=O)[C@@H](NC(=O)[C@@H](NC(=O)[C@@H](NC(=O)CN)C(C)C)[C@@H](C)CC)[C@@H](C)CC)C(C)C)CSSC[C@@H]2NC(=O)[C@H](CCCCN)NC(=O)CNC(=O)[C@H](Cc3ccccc3)NC(=O)[C@H](CCCNC(=N)N)NC(=O)[C@H](CCSC)NC(=O)CNC(=O)[C@H](C)NC(=O)[C@H](CCCCN)NC(=O)[C@H](CCCCN)NC(=O)[C@@H]3CSSC[C@@H](C(=O)N[C@H](C(=O)N4CCC[C@H]4C(=O)N[C@@H](CCCCN)C(=O)O)[C@@H](C)O)NC(=O)[C@H](Cc4c[nH]cn4)NC(=O)[C@H](CSSC[C@H](NC(=O)[C@H](CCC(N)=O)NC(=O)[C@H](CCCNC(=N)N)NC(=O)[C@H](CO)NC1=O)C(=O)N[C@@H](CC(C)C)C(=O)N[C@@H](CCC(=O)O)C(=O)N1CCC[C@H]1C(=O)N3)NC(=O)[C@H](CCCCN)NC(=O)[C@H](CCC(=O)O)NC(=O)[C@H](CC(N)=O)NC(=O)[C@H](CCSC)NC2=O [G31E] (H-GVIINVKCKISRQCLEPCKKAGMRFGKCMNEKCHCTPK-OH; disulfide 8-28, 14-33, 18-35)",IC50,[1],0.012 nM
same,IC50,[2],0.00237 nM
"CC[C@H](C)[C@@H]1NC(=O)[C@H](CCCCN)NC(=O)[C@@H](NC(=O)[C@H](Cc2cccc3ccccc23)NC(=O)[C@@H](NC(=O)[C@H](CC(N)=O)NC(=O)[C@@H](NC(=O)[C@@H](NC(=O)[C@@H](NC(=O)CN)C(C)C)[C@@H](C)CC)[C@@H](C)CC)C(C)C)CSSC[C@@H]2NC(=O)[C@H](CCCCN)NC(=O)CNC(=O)[C@H](Cc3ccccc3)NC(=O)[C@H](CCCNC(=N)N)NC(=O)[C@H](CCSC)NC(=O)CNC(=O)[C@H](C)NC(=O)[C@H](CCCCN)NC(=O)[C@H](CCCCN)NC(=O)[C@@H]3CSSC[C@@H](C(=O)N[C@H](C(=O)N4CCC[C@H]4C(=O)N[C@@H](CCCCN)C(=O)O)[C@@H](C)O)NC(=O)[C@H](Cc4c[nH]cn4)NC(=O)[C@H](CSSC[C@H](NC(=O)[C@H](CCC(N)=O)NC(=O)[C@H](CCCNC(=N)N)NC(=O)[C@H](CO)NC1=O)C(=O)N[C@@H](CC(C)C)C(=O)N[C@@H](CCC(=O)O)C(=O)N1CCC[C@H]1C(=O)N3)NC(=O)[C@H](CCCCN)NC(=O)CNC(=O)[C@H](CC(N)=O)NC(=O)[C@H](CCSC)NC2=O [K7Nal] (H-GVIINV[1Nal]CKISRQCLEPCKKAGMRFGKCMNGKCHCTPK-OH; disulfide 8-28, 14-33, 18-35)",IC50,[1],0.0236 nM
same,IC50,[2],< 0.00152 nM
"CC[C@H](C)[C@@H]1NC(=O)[C@H](CCCCN)NC(=O)[C@@H](NC(=O)[C@H](CCCCN)NC(=O)[C@@H](NC(=O)[C@H](CC(N)=O)NC(=O)[C@@H](NC(=O)[C@@H](NC(=O)[C@@H](NC(=O)CN)C(C)C)[C@@H](C)CC)[C@@H](C)CC)C(C)C)CSSC[C@@H]2NC(=O)[C@H](CCCCN)NC(=O)CNC(=O)[C@H](Cc3ccccc3)NC(=O)[C@H](CCCNC(=N)N)NC(=O)[C@H](CCSC)NC(=O)CNC(=O)[C@H](C)NC(=O)[C@H](CCCCN)NC(=O)[C@H](CCC(=O)O)NC(=O)[C@@H]3CSSC[C@@H](C(=O)N[C@H](C(=O)N4CCC[C@H]4C(=O)N[C@@H](CCCCN)C(=O)O)[C@@H](C)O)NC(=O)[C@H](Cc4c[nH]cn4)NC(=O)[C@H](CSSC[C@H](NC(=O)[C@H](CCC(N)=O)NC(=O)[C@H](CCCNC(=N)N)NC(=O)[C@H](CO)NC1=O)C(=O)N[C@@H](CC(C)C)C(=O)N[C@@H](CCC(=O)O)C(=O)N1CCC[C@H]1C(=O)N3)NC(=O)[C@H](CCCCN)NC(=O)CNC(=O)[C@H](CC(N)=O)NC(=O)[C@H](CCSC)NC2=O [K19E] (H-GVIINVKCKISRQCLEPCEKAGMRFGKCMNGKCHCTPK-OH; disulfide 8-28, 14-33, 18-35)",IC50,[1],0.0235 nM
same,IC50,[2],0.0137 nM
"CC[C@H](C)[C@@H]1NC(=O)[C@H](CCCCN)NC(=O)[C@@H](NC(=O)[C@H](CCCCN)NC(=O)[C@H](CCC(=O)O)NC(=O)[C@H](CC(N)=O)NC(=O)[C@@H](NC(=O)[C@@H](NC(=O)[C@@H](NC(=O)CN)C(C)C)[C@@H](C)CC)[C@@H](C)CC)CSSC[C@@H]2NC(=O)[C@H](CCCCN)NC(=O)CNC(=O)[C@H](Cc3ccccc3)NC(=O)[C@H](CCCNC(=N)N)NC(=O)[C@H](CCSC)NC(=O)CNC(=O)[C@H](C)NC(=O)[C@H](CCCCN)NC(=O)[C@H](CCCCN)NC(=O)[C@@H]3CSSC[C@@H](C(=O)N[C@H](C(=O)N4CCC[C@H]4C(=O)N[C@@H](CCCCN)C(=O)O)[C@@H](C)O)NC(=O)[C@H](Cc4c[nH]cn4)NC(=O)[C@H](CSSC[C@H](NC(=O)[C@H](CCC(N)=O)NC(=O)[C@H](CCCNC(=N)N)NC(=O)[C@H](CO)NC1=O)C(=O)N[C@@H](CC(C)C)C(=O)N[C@@H](CCC(=O)O)C(=O)N1CCC[C@H]1C(=O)N3)NC(=O)[C@H](CCCCN)NC(=O)CNC(=O)[C@H](CC(N)=O)NC(=O)[C@H](CCSC)NC2=O [V6E] (H-GVIINEKCKISRQCLEPCKKAGMRFGKCMNGKCHCTPK-OH; disulfide 8-28, 14-33, 18-35)",IC50,[1],0.0177 nM
same,IC50,[2],0.00243 nM
"CC[C@H](C)[C@@H]1NC(=O)[C@H](CCCCN)NC(=O)[C@@H](NC(=O)[C@H](CCCCN)NC(=O)[C@@H](NC(=O)[C@H](CCC(=O)O)NC(=O)[C@@H](NC(=O)[C@@H](NC(=O)[C@@H](NC(=O)CN)C(C)C)[C@@H](C)CC)[C@@H](C)CC)C(C)C)CSSC[C@@H]2NC(=O)[C@H](CCCCN)NC(=O)CNC(=O)[C@H](Cc3ccccc3)NC(=O)[C@H](CCCNC(=N)N)NC(=O)[C@H](CCSC)NC(=O)CNC(=O)[C@H](C)NC(=O)[C@H](CCCCN)NC(=O)[C@H](CCCCN)NC(=O)[C@@H]3CSSC[C@@H](C(=O)N[C@H](C(=O)N4CCC[C@H]4C(=O)N[C@@H](CCCCN)C(=O)O)[C@@H](C)O)NC(=O)[C@H](Cc4c[nH]cn4)NC(=O)[C@H](CSSC[C@H](NC(=O)[C@H](CCC(N)=O)NC(=O)[C@H](CCCNC(=N)N)NC(=O)[C@H](CO)NC1=O)C(=O)N[C@@H](CC(C)C)C(=O)N[C@@H](CCC(=O)O)C(=O)N1CCC[C@H]1C(=O)N3)NC(=O)[C@H](CCCCN)NC(=O)CNC(=O)[C@H](CC(N)=O)NC(=O)[C@H](CCSC)NC2=O [N5E] (H-GVIIEVKCKISRQCLEPCKKAGMRFGKCMNGKCHCTPK-OH; disulfide 8-28, 14-33, 18-35)",IC50,[1],0.0234 nM
same,IC50,[2],0.00444 nM
"CC[C@H](C)[C@@H]1NC(=O)[C@H](CCCCN)NC(=O)[C@@H](NC(=O)[C@H](CCCCN)NC(=O)[C@@H](NC(=O)[C@H](CC(N)=O)NC(=O)[C@@H](NC(=O)[C@@H](NC(=O)[C@@H](NC(=O)CN)C(C)C)[C@@H](C)CC)[C@@H](C)CC)C(C)C)CSSC[C@@H]2NC(=O)[C@H](CCCCN)NC(=O)CNC(=O)[C@H](Cc3ccccc3)NC(=O)[C@H](CCCNC(=N)N)NC(=O)[C@H](CCSC)NC(=O)CNC(=O)[C@H](C)NC(=O)[C@H](CCCCN)NC(=O)[C@H](CCCCN)NC(=O)[C@@H]3CSSC[C@@H](C(=O)N[C@H](C(=O)N4CCC[C@H]4C(=O)N[C@@H](CCCCN)C(=O)O)[C@@H](C)O)NC(=O)[C@H](Cc4c[nH]cn4)NC(=O)[C@H](CSSC[C@H](NC(=O)[C@H](C)NC(=O)[C@H](CCCNC(=N)N)NC(=O)[C@H](CO)NC1=O)C(=O)N[C@@H](CC(C)C)C(=O)N[C@@H](CCC(=O)O)C(=O)N1CCC[C@H]1C(=O)N3)NC(=O)[C@H](CCCCN)NC(=O)CNC(=O)[C@H](CC(N)=O)NC(=O)[C@H](CCSC)NC2=O [Q13A] (H-GVIINVKCKISRACLEPCKKAGMRFGKCMNGKCHCTPK-OH; disulfide 8-28, 14-33, 18-35)",IC50,[1],0.249 nM
same,IC50,[2],0.0217 nM
"CC[C@H](C)[C@@H]1NC(=O)[C@H](CCCCN)NC(=O)[C@@H](NC(=O)[C@H](CCCCN)NC(=O)[C@@H](NC(=O)[C@H](CC(N)=O)NC(=O)[C@@H](NC(=O)[C@@H](NC(=O)[C@@H](NC(=O)CN)C(C)C)[C@@H](C)CC)[C@@H](C)CC)C(C)C)CSSC[C@@H]2NC(=O)[C@H](CCCCN)NC(=O)CNC(=O)[C@H](CCC(=O)O)NC(=O)[C@H](CCCNC(=N)N)NC(=O)[C@H](CCSC)NC(=O)CNC(=O)[C@H](C)NC(=O)[C@H](CCCCN)NC(=O)[C@H](CCCCN)NC(=O)[C@@H]3CSSC[C@@H](C(=O)N[C@H](C(=O)N4CCC[C@H]4C(=O)N[C@@H](CCCCN)C(=O)O)[C@@H](C)O)NC(=O)[C@H](Cc4c[nH]cn4)NC(=O)[C@H](CSSC[C@H](NC(=O)[C@H](CCC(N)=O)NC(=O)[C@H](CCCNC(=N)N)NC(=O)[C@H](CO)NC1=O)C(=O)N[C@@H](CC(C)C)C(=O)N[C@@H](CCC(=O)O)C(=O)N1CCC[C@H]1C(=O)N3)NC(=O)[C@H](CCCCN)NC(=O)CNC(=O)[C@H](CC(N)=O)NC(=O)[C@H](CCSC)NC2=O [F25E] (H-GVIINVKCKISRQCLEPCKKAGMREGKCMNGKCHCTPK-OH; disulfide 8-28, 14-33, 18-35)",IC50,[1],> 3.33 nM
same,IC50,[2],> 3.33 nM
